Assay results published in PMC10147936, “Dietary factors potentially impacting thiaminase I-mediated thiamine deficiency” (Scientific Reports, 2023).

Molecular target: T1, thiaminase I from C. botulinum (BcmE) (Clostridium botulinum, UniProt A5HZW3)
T1 construct: gene CBO0770
Assay: biochemical

T1 sequence (A5HZW3 1-404): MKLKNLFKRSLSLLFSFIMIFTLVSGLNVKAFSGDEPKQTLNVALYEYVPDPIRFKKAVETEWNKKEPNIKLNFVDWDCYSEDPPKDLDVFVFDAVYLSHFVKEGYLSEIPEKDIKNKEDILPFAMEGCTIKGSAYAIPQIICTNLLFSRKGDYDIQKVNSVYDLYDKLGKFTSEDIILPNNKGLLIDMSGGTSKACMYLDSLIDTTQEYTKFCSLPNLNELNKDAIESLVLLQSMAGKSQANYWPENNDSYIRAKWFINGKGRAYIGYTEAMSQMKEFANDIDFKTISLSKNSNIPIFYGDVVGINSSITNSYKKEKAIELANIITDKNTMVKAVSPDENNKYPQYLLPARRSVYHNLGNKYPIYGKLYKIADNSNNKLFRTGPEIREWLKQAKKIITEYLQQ

In the case of O=C1O[C@H]([C@@H](O)CO)C(O)=C1O [ascorbic acid], the IC50 is reported as 266 nM.
